In PMC11214487, “YZL-51N functions as a selective inhibitor of SIRT7 by NAD^+ competition to impede DNA damage repair” (iScience, 2024):

Assays:
SIRT7 = target: T1, SIRT7 (Homo sapiens, UniProt Q9NRC8); experiment: Surface plasmon resonance (SPR) binding assay
T1 construct: His-tagged full length SIRT7 protein expression from BL21 bacterial cells; His; made in house; host or cells: E. coli BL21
T1 sequence (Q9NRC8 1-400): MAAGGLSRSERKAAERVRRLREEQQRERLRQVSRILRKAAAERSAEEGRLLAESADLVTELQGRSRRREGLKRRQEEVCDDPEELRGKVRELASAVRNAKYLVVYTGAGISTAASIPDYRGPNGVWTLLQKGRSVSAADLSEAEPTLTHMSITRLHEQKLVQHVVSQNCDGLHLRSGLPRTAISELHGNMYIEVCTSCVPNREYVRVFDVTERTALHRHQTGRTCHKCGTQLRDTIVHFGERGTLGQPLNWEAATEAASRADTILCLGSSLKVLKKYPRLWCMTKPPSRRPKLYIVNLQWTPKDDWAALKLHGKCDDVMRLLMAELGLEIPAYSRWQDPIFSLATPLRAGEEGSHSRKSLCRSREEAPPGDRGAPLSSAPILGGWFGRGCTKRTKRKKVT
Protocol: All SPR measurements were performed on Biacore T200 instrument (GE Healthcare) with running buffer (PBS+5% DMSO) at room temperature. The bacterially purified His-SIRT7 was covalently immobilized onto Series S Sensor Chip CM5 by a standard amino-coupling procedure in 10 mM sodium acetate (pH 5.5). Two-fold serial dilutions of YZL-51N or NAD^+ in 5% DMSO passed through the sensor chip at 30 μL/min for 120 s, followed by 240 s of dissociation flow. The KD value was calculated based on the concentration dependence of the observed steady-state response using Biacore T200 Evaluation software Version 1.0 (GE Healthcare).

HT29 = experiment: CCK-8 cell proliferation assay; format: cell-based; settings: Homo sapiens, HT-29; HT29, 48 h
Protocol: (§1) The plate was added with 10 μL CCK-8 solution to each well and incubated for 2 h at 37°C. The absorbance was measured at 450 nm using a microtiter plate reader (BioTek).

HCT116 = experiment: CCK-8 cell proliferation assay; format: cell-based; settings: Homo sapiens, HCT-116; HCT116, 48 h
Protocol: as §1

SW620 = experiment: CCK-8 cell proliferation assay; format: cell-based; settings: Homo sapiens, SW-620; SW620, 48 h
Protocol: as §1

disassociation rate (koff) (SIRT7): 0.0006315 s⁻¹
Kd (SIRT7; immobilized His-SIRT7): 1.02 µM
kon (SIRT7; read-out: association rate (kon)): 618 M⁻¹ s⁻¹
IC50 (HT29): 47.5 µM
IC50 (HCT116): 37.5 µM
IC50 (SW620): 28.6 µM
Compound: COC(=O)/C(=C\C(=O)c1ccc(O)c(O)c1)c1ccc(O)c(O)c1 [YZL-51N]
